The record followed here is PubChem BioAssay (NCI).

Among the test systems are 786-0 renal; A498 renal; HT29 colon; M14 melanoma; NCI/ADR-RES ovarian; SF-268 CNS; SF-539 CNS; SK-MEL-5 melanoma; TK-10 renal; U251 CNS.
Common to all, as to assay: NCI-60 cell line screen, 48 h

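Interpolation was linear, between the two tested concentrations surrounding the appropriate level; five concentrations were tested over 48 hours in 96-well plates. At the GI50, growth is halved. TGI denotes the concentration required for complete inhibition of growth.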

On to `C=C1C(=O)O[C@H]2[C@H]1CC/C(COC(=O)CCCc1c[nH]c3ccccc13)=C\CC[C@@]1(C)O[C@@H]21`, for which the GI50 was 1600 nM with 786-0 renal; 11900 nM with A498 renal; 1710 nM with HT29 colon; 1660 nM in the test on M14 melanoma; 2900 nM in the test with NCI/ADR-RES ovarian; 1690 nM with SF-268 CNS. The GI50 with SF-539 CNS was 1630 nM; in the test on SK-MEL-5 melanoma, 1740 nM; in the test on TK-10 renal, 1640 nM; in the test on U251 CNS, 1950 nM. Further, the TGI in the test on 786-0 renal was 3.2 µM; with A498 renal it was 24.3 µM; with HT29 colon, 3.37 µM; with M14 melanoma it was 3.87 µM; in the test with NCI/ADR-RES ovarian it was 10.9 µM; in the test on SF-268 CNS it was 3.46 µM. In addition, the TGI with SF-539 CNS is 3.07 µM; in the test with SK-MEL-5 melanoma it was 3.13 µM; in the test with TK-10 renal, 3.07 µM; with U251 CNS it was 3.67 µM.
In the case of `Cc1ccc2c(c1)C(=O)c1c-2c(OCCCN(C)C)nc2ccccc12`, the GI50 is 2980 nM in the test with 786-0 renal; 4020 nM with A498 renal; 710 nM in the test on HT29 colon; 1620 nM in the test with M14 melanoma; 1240 nM in the test on NCI/ADR-RES ovarian; 2300 nM with SF-268 CNS. In addition, the GI50 in the test on SF-539 CNS was 1530 nM; in the test on SK-MEL-5 melanoma, 4140 nM; in the test with TK-10 renal, 7900 nM; with U251 CNS, 4130 nM. Further, the TGI was 18.1 µM in the test on 786-0 renal; 14.3 µM with A498 renal; 3.33 µM in the test on HT29 colon; 3.23 µM in the test with M14 melanoma; 6.53 µM with NCI/ADR-RES ovarian; 12.9 µM with SF-268 CNS. Further, the TGI in the test on SF-539 CNS was determined as 2.99 µM; in the test on SK-MEL-5 melanoma, 16.3 µM; in the test on TK-10 renal it was 23.3 µM; with U251 CNS, 14.8 µM.
With `CN(C)CCCC1(c2ccc(F)cc2)OCc2cc(-c3cc4ccccc4s3)ccc21` (centres undefined), the GI50 with 786-0 renal was 1760 nM; with A498 renal it was 1530 nM; with HT29 colon, 1670 nM; with M14 melanoma it was 1590 nM; in the test with NCI/ADR-RES ovarian, 1740 nM; in the test on SF-268 CNS, 1650 nM. For the same compound, the GI50 is 1700 nM in the test on SF-539 CNS, 1690 nM in the test with SK-MEL-5 melanoma, 1700 nM with TK-10 renal and 1630 nM in the test on U251 CNS. The TGI with 786-0 renal worked out at 3.37 µM; with A498 renal, 2.92 µM; in the test with HT29 colon, 3.11 µM; in the test with M14 melanoma it was 3.13 µM; with NCI/ADR-RES ovarian, 3.25 µM; in the test on SF-268 CNS, 3.29 µM. The TGI came out at 3.09 µM in the test on SF-539 CNS, 3.05 µM in the test with SK-MEL-5 melanoma, 3.13 µM with TK-10 renal and 3.02 µM in the test on U251 CNS.
`C=C1C(=O)O[C@H]2[C@H]1CC/C(COC(=O)OC/C1=C/CC[C@@]3(C)O[C@H]3[C@H]3OC(=O)[C@@H](CN(C)C)[C@@H]3CC1)=C\CC[C@@]1(C)O[C@@H]21`: the GI50 is 1310 nM in the test on 786-0 renal; 8290 nM in the test on A498 renal; 996 nM in the test on HT29 colon; 1540 nM with M14 melanoma; 12800 nM with NCI/ADR-RES ovarian; 3070 nM in the test with SF-268 CNS. Further, the GI50 in the test on SF-539 CNS is 1800 nM; in the test on SK-MEL-5 melanoma, 3970 nM; in the test with TK-10 renal, 1180 nM; in the test on U251 CNS, 3300 nM. In addition, the TGI in the test with 786-0 renal came to 2.79 µM; in the test with A498 renal it was 21.8 µM; in the test on HT29 colon, 2.47 µM; with M14 melanoma, 3.35 µM; with NCI/ADR-RES ovarian, 29.7 µM; in the test on SF-268 CNS, 13.7 µM. The TGI in the test with SF-539 CNS is 4.4 µM; with SK-MEL-5 melanoma it was 15.1 µM; with TK-10 renal, 2.57 µM; in the test with U251 CNS it was 12.5 µM.
On to `O=CN1N=C(c2cccc(Nc3ccnc4cc(Cl)ccc34)c2)CC1c1ccccc1` (centres undefined), for which the GI50 in the test on 786-0 renal was 543 nM; in the test with A498 renal, 230 nM; with HT29 colon it was 327 nM; in the test with M14 melanoma, 284 nM; in the test on NCI/ADR-RES ovarian it was 290 nM; with SF-268 CNS, 768 nM. For the same compound, the GI50 with SF-539 CNS was 370 nM; in the test on SK-MEL-5 melanoma, 315 nM; with TK-10 renal, 345 nM; in the test with U251 CNS, 358 nM. In addition, the TGI is 18 µM in the test on 786-0 renal; 1.1 µM in the test with A498 renal; 1.15 µM in the test with HT29 colon; 6.75 µM with M14 melanoma; 1.17 µM in the test with NCI/ADR-RES ovarian; 41.2 µM in the test with SF-268 CNS. Further, the TGI was determined as 2.49 µM with SF-539 CNS, 2.02 µM with SK-MEL-5 melanoma, 16.4 µM in the test with TK-10 renal and 1.55 µM in the test with U251 CNS.
`CC(=O)O[C@H]1C(=O)[C@@]2(C)[C@H]([C@H](OC(=O)c3ccccc3)[C@]3(O)C[C@H](OC(=O)[C@H](OC(=O)OC[C@H]4COC(C)(C)O4)[C@@H](NC(=O)c4ccccc4)c4ccccc4)C(C)=C1C3(C)C)[C@]1(OC(C)=O)CO[C@@H]1C[C@@H]2O`: the GI50 was 122 nM in the test on 786-0 renal; 54.5 nM in the test with A498 renal; 5.9 nM with HT29 colon; 17.1 nM in the test on M14 melanoma; more than 33300 nM in the test on NCI/ADR-RES ovarian; 165 nM in the test on SF-268 CNS. The GI50 in the test with SF-539 CNS is 57.9 nM; in the test on SK-MEL-5 melanoma it was 83.2 nM; with TK-10 renal, 492 nM; in the test on U251 CNS it was 28.8 nM. Besides, the TGI with 786-0 renal is more than 33.3 µM; in the test on A498 renal, 0.499 µM; in the test with HT29 colon, more than 33.3 µM; in the test with M14 melanoma, 0.133 µM; in the test on NCI/ADR-RES ovarian, more than 33.3 µM; with SF-268 CNS, more than 33.3 µM. The TGI in the test on SF-539 CNS is 16.7 µM; with SK-MEL-5 melanoma it was more than 33.3 µM; in the test with TK-10 renal, more than 33.3 µM; with U251 CNS, more than 33.3 µM.
For the compound `O=C(Nc1ccc(F)cc1)Nc1ccc(Br)c(C(F)(F)F)c1`, the GI50 with 786-0 renal was 2420 nM; in the test on A498 renal, 1920 nM; with HT29 colon, 2300 nM; in the test on M14 melanoma it was 2290 nM; in the test on NCI/ADR-RES ovarian it was 2510 nM; with SF-268 CNS, 2970 nM. Also, the GI50 was 2580 nM with SF-539 CNS, 1670 nM in the test with SK-MEL-5 melanoma, 2330 nM in the test with TK-10 renal and 2140 nM in the test on U251 CNS. Besides, the TGI with 786-0 renal was found to be 8.17 µM; in the test with A498 renal, 5.15 µM; with HT29 colon, 10.9 µM; in the test on M14 melanoma, 7.41 µM; with NCI/ADR-RES ovarian, 10.1 µM; in the test with SF-268 CNS it was 13.2 µM. The TGI stood at 8.43 µM in the test with SF-539 CNS, 3.11 µM in the test on SK-MEL-5 melanoma, 7.43 µM with TK-10 renal and 7.47 µM in the test on U251 CNS.
For the compound `C[n+]1c2ccccc2nc2ccccc21`, the GI50 with 786-0 renal is 2310 nM; in the test with A498 renal it was 1750 nM; in the test on HT29 colon it was 1760 nM; in the test on M14 melanoma, 1670 nM; in the test with NCI/ADR-RES ovarian it was 1680 nM; in the test with SF-268 CNS it was 2520 nM. For the same compound, the GI50 is 1680 nM in the test on SF-539 CNS, 1030 nM in the test on SK-MEL-5 melanoma, 2710 nM in the test on TK-10 renal and 1440 nM in the test with U251 CNS. The TGI was determined as 8.47 µM with 786-0 renal; 3.46 µM in the test with A498 renal; 12 µM in the test on HT29 colon; 3.89 µM in the test on M14 melanoma; 6.91 µM with NCI/ADR-RES ovarian; 7.78 µM in the test on SF-268 CNS. For the same compound, the TGI in the test with SF-539 CNS worked out at 4.76 µM; with SK-MEL-5 melanoma, 2.52 µM; in the test with TK-10 renal it was 13 µM; in the test on U251 CNS, 3.09 µM.
In the case of `COC(=O)c1c2c(c(C)[n+]([O-])c1C)C(=O)C=C(NCc1cccc(Cl)c1)C2=O`, the GI50 is 1440 nM in the test with 786-0 renal; 1210 nM in the test on A498 renal; 310 nM in the test on HT29 colon; 280 nM with M14 melanoma; 307 nM in the test on NCI/ADR-RES ovarian; 737 nM in the test on SF-268 CNS. Besides, the GI50 in the test on SF-539 CNS is 525 nM; in the test on SK-MEL-5 melanoma, 167 nM; in the test with TK-10 renal, 2430 nM; in the test with U251 CNS it was 367 nM. Moreover, the TGI stood at 3.64 µM with 786-0 renal; 2.46 µM in the test with A498 renal; 1.56 µM in the test with M14 melanoma; 1.79 µM in the test on NCI/ADR-RES ovarian; 3.15 µM in the test on SF-268 CNS; 1.49 µM in the test with SF-539 CNS. Moreover, the TGI amounted to 0.316 µM in the test with SK-MEL-5 melanoma, 6.52 µM in the test with TK-10 renal and 1.55 µM in the test with U251 CNS.
As to `COc1cc(OC)c(OC)cc1/C=C/c1cnnc2ccccc12`, the TGI with 786-0 renal, with A498 renal, with HT29 colon, in the test with M14 melanoma, with NCI/ADR-RES ovarian and with SF-268 CNS was more than 10 µM throughout. Moreover, the TGI in the test on SF-539 CNS, in the test on SK-MEL-5 melanoma, with TK-10 renal and in the test on U251 CNS was more than 10 µM throughout.
For the compound `C[C@H]1COCCN1c1cc(C2(S(=O)(=O)C3CC3)CC2)nc(-c2ccc(NC(=S)NCCO)cc2)n1`, the GI50 was 38.2 nM in the test on 786-0 renal; less than 10 nM in the test on A498 renal; 64.8 nM with HT29 colon; 28.7 nM with M14 melanoma; 1930 nM in the test with NCI/ADR-RES ovarian; 33.2 nM in the test on SF-268 CNS. The GI50 in the test with SF-539 CNS is 29.2 nM; with SK-MEL-5 melanoma, 15.1 nM; in the test with TK-10 renal, 14.8 nM; in the test with U251 CNS, 52.4 nM. Besides, the TGI was 3.49 µM in the test with 786-0 renal; less than 0.0135 µM in the test with A498 renal; more than 60.4 µM with HT29 colon; 10.1 µM in the test on M14 melanoma; 47.8 µM with NCI/ADR-RES ovarian; more than 41.3 µM in the test on SF-268 CNS. The TGI is 0.347 µM in the test with SF-539 CNS, 0.147 µM in the test on SK-MEL-5 melanoma, 0.274 µM in the test on TK-10 renal and 32.2 µM in the test on U251 CNS.
